# Molecular target: CYP3A4 (Homo sapiens, UniProt P08684)
# Experiment: Determination of CYP3A4 inhibitory activity (human liver microsome, Luciferin-IPA)
# Conditions: CYP3A4 IC50 (nM), 37° C. 11 minutes
# Protocol: The standard final Compound concentrations were 37, 111, 333, 1000, and 3000 nM. 12.5 μL of the Compound dilutions were transferred to a white 96-well plate. […] 25 μL of the buffer was added to each well. The plates were incubated at 37° C. for 11 minutes. 50 μL of luciferin detection reagent (Promega V9002) was added and the plates were incubated at room temperature for 5 minutes. The plate was read with a luminometer.
# The dose-response curve and IC50 were obtained by fitting data to nonlinear regression model using GraphPad Prism software (v6.0).
# Sequence of CYP3A4 (P08684 whole entry): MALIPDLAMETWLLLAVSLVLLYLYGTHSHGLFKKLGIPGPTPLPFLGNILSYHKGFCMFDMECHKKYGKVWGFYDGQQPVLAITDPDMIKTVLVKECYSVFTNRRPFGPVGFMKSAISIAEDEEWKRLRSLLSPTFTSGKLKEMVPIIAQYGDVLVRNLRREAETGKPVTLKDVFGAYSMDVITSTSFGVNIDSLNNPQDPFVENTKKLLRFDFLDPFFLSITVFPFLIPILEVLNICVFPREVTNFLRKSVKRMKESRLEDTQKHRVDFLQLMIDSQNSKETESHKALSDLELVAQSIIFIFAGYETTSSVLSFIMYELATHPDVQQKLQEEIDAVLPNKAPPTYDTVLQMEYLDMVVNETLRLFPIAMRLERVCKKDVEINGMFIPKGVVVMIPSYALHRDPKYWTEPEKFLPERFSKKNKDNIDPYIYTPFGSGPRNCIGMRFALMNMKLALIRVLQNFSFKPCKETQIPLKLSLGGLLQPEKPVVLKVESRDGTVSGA
row,SMILES,IC50
1,COc1cc(NC(=O)c2cc(=O)c3ccccc3o2)c(C(=O)Nc2ccc(CCN(C)Cc3ccc(-n4ccnc4)cc3)cc2)cc1OC [Compound 1],100 to 250 nM
2,COc1cc(NC(=O)c2cnc3ccccc3c2)c(C(=O)Nc2ccc(CCN(C)Cc3ccc(-n4ccnc4)cc3)cc2)cc1OC [Compound 2],100 to 250 nM
3,COc1cc(NC(=O)c2cc(=O)c3ccccc3o2)c(C(=O)Nc2ccc(CCN(C)Cc3cccc(-c4cccnc4)c3)cc2)cc1OC [Compound 7],500 to 1000 nM
4,COc1cc(NC(=O)c2cc(=O)c3ccccc3o2)c(C(=O)Nc2ccc(CCN(Cc3cccc(-n4ccnc4)c3)C(C)C)cc2)cc1OC [Compound 10],250 to 500 nM
5,COc1cc(NC(=O)c2cc(=O)c3ccccc3o2)c(C(=O)Nc2ccc(CCN(C)Cc3cccc(-n4cnc(C)c4)c3)cc2)cc1OC [Compound 11],500 to 1000 nM
6,COc1cc(NC(=O)c2cc(=O)c3ccccc3o2)c(C(=O)Nc2ccc(CCN(C)Cc3cccc(-c4c[nH]cn4)c3)cc2)cc1OC [Compound 13],> 1000 nM
7,COc1cc(NC(=O)c2cc(=O)c3ccccc3o2)c(C(=O)Nc2ccc(CCN(Cc3cccc(-n4ccnc4)c3)Cc3ccc4c(cnn4C)c3)cc2)cc1OC [Compound 16],250 to 500 nM
8,CCN(CCc1ccc(NC(=O)c2cc(OC)c(OC)cc2NC(=O)c2cc(=O)c3ccccc3o2)cc1)Cc1ccc(-n2cncn2)cc1 [Compound 20],100 to 250 nM
9,CCN(CCc1ccc(NC(=O)c2cc(OC)c(OC)cc2NC(=O)c2cc(=O)c3ccccc3o2)cc1)Cc1ccc(OC)c(Cn2cncn2)c1 [Compound 24],100 to 250 nM
10,CCN(CCc1ccc(NC(=O)c2cc(OC)c(OC)cc2NC(=O)c2cc(=O)c3ccccc3o2)cc1)Cc1cccn1Cc1cccnc1 [Compound 25],250 to 500 nM
11,COc1cc(NC(=O)c2cc(=O)c3ccccc3o2)c(C(=O)Nc2ccc(CCN(Cc3ccc(-n4ccnc4)cc3)Cc3ccc4c(cnn4C)c3)cc2)cc1OC [Compound 26],250 to 500 nM
12,COc1ccc(CN(CCc2ccc(NC(=O)c3cc(OC)c(OC)cc3NC(=O)c3cc(=O)c4ccccc4o3)cc2)Cc2cccc(-n3ccnc3)c2)cc1OC [Compound 27],100 to 250 nM
13,COc1cc(NC(=O)c2cnc3ccccc3n2)c(C(=O)Nc2ccc(CCN(Cc3cccc(-n4ccnc4)c3)Cc3ccc4c(cnn4C)c3)cc2)cc1OC [Compound 30],500 to 1000 nM
14,COc1cc(NC(=O)c2cc(=O)c3ccccc3o2)c(C(=O)Nc2ccc(CCN(Cc3cccnc3)Cc3ccc4cnn(C)c4c3)cc2)cc1OC [Compound 32],< 100 nM
15,COc1cc(NC(=O)c2cc(=O)c3ccccc3o2)c(C(=O)Nc2ccc(CCN(Cc3ccncc3)Cc3ccc4c(cnn4C)c3)cc2)cc1OC [Compound 33],< 100 nM
16,COc1cc(NC(=O)c2cc(=O)c3ccccc3o2)c(C(=O)Nc2ccc(CCN(CC3=CNCN3C)Cc3ccc4cnn(C)c4c3)cc2)cc1OC [Compound 35],> 1000 nM
17,COc1cc(NC(=O)c2cc(=O)c3ccccc3o2)c(C(=O)Nc2ccc(CCN(Cc3ccc4cnn(C)c4c3)Cc3ncc[nH]3)cc2)cc1OC [Compound 36],100 to 250 nM
18,COc1cc(NC(=O)c2cc(=O)c3cc(C)ccc3o2)c(C(=O)Nc2ccc(CCN(Cc3cccnc3)Cc3ccc4c(cnn4C)c3)cc2)cc1OC [Compound 38],100 to 250 nM
19,COc1cc(NC(=O)c2cc(=O)c3cc(C)cc(C)c3o2)c(C(=O)Nc2ccc(CCN(Cc3cccnc3)Cc3ccc4c(cnn4C)c3)cc2)cc1OC [Compound 39],250 to 500 nM
20,COc1cc(NC(=O)c2cc(=O)c3ccccc3o2)c(C(=O)Nc2ccc(CCN(Cc3cccnc3)Cc3ccc4c(c3)CCO4)cc2)cc1OC [Compound 45],250 to 500 nM
21,COc1cc(NC(=O)c2cc(=O)c3ccccc3o2)c(C(=O)Nc2ccc(CCN(Cc3cncc(F)c3)Cc3ccc4c(cnn4C)c3)cc2)cc1OC [Compound 46],250 to 500 nM
22,COc1cncc(CN(CCc2ccc(NC(=O)c3cc(OC)c(OC)cc3NC(=O)c3cnc4ccccc4c3)cc2)Cc2ccc3c(cnn3C)c2)c1 [Compound 51],250 to 500 nM

# Now from value to molecule:
row,IC50,SMILES
1,100 to 250 nM,COc1cc(NC(=O)c2cc(=O)c3ccccc3o2)c(C(=O)Nc2ccc(CCN(C)Cc3cccc(-n4ccnc4)c3)cc2)cc1OC [Compound 3]
2,100 to 250 nM,COc1cc(NC(=O)c2cc(=O)c3ccccc3o2)c(C(=O)Nc2ccc(CCN(Cc3cccc(-n4ccnc4)c3)CC3CC3)cc2)cc1OC [Compound 9]
3,> 1000 nM,COc1cc(NC(=O)c2cc(=O)c3ccccc3o2)c(C(=O)Nc2ccc(CCN(C)Cc3ccc4c(c3)CNN4C)cc2)cc1OC [Compound 12]
4,500 to 1000 nM,COc1cc(NC(=O)c2cc(=O)c3ccccc3o2)c(C(=O)Nc2ccc(CCN(C)Cc3cccc(-c4cncs4)c3)cc2)cc1OC [Compound 15]
5,< 100 nM,COc1cc(NC(=O)c2cc(=O)c3ccccc3o2)c(C(=O)Nc2ccc(CCN(C)Cc3cccc(OC[C@@H]4CO[C@@](Cn5ccnc5)(c5ccc(Cl)cc5Cl)O4)c3)cc2)cc1OC [Compound 17]
6,< 100 nM,COc1cc(NC(=O)c2cc(=O)c3ccccc3o2)c(C(=O)Nc2ccc(CCN(Cc3cncn3C)Cc3cncn3C)cc2)cc1OC [Compound 18]
7,250 to 500 nM,COc1cc(NC(=O)c2cc(=O)c3ccccc3o2)c(C(=O)Nc2ccc(CCN(C)Cc3ccc(-n4cncn4)cc3)cc2)cc1OC [Compound 19]
8,< 100 nM,COc1cc(NC(=O)c2cc(=O)c3ccccc3o2)c(C(=O)Nc2ccc(CCN(Cc3ccc4c(cnn4C)c3)Cc3cncn3C)cc2)cc1OC [Compound 21]
9,250 to 500 nM,COc1cc(NC(=O)c2cc(=O)c3ccccc3o2)c(C(=O)Nc2ccc(CCN(Cc3cccc(-n4cnc(C)c4)c3)Cc3ccc4c(cnn4C)c3)cc2)cc1OC [Compound 23]
10,100 to 250 nM,COc1ccc(CN(CCc2ccc(NC(=O)c3cc(OC)c(OC)cc3NC(=O)c3cc(=O)c4ccccc4o3)cc2)Cc2ccc(-n3ccnc3)cc2)cc1OC [Compound 28]
11,100 to 250 nM,COc1ccc(CN(CCc2ccc(NC(=O)c3cc(OC)c(OC)cc3NC(=O)c3cc(=O)c4ccccc4o3)cc2)Cc2cccnc2)cc1OC [Compound 29]
12,100 to 250 nM,CCn1cncc1CN(CCc1ccc(NC(=O)c2cc(OC)c(OC)cc2NC(=O)c2cnc3ccccc3n2)cc1)Cc1ccc2c(cnn2C)c1 [Compound 34]
13,100 to 250 nM,CCN1CNC=C1CN(CCc1ccc(NC(=O)c2cc(OC)c(OC)cc2NC(=O)c2cc(=O)c3ccccc3o2)cc1)Cc1ccc2cnn(C)c2c1 [Compound 37]
14,250 to 500 nM,COc1cc(NC(=O)c2cc(=O)c3ccccc3o2)c(C(=O)Nc2ccc(CCN(Cc3cccnc3)Cc3ccc4cnn(C)c4c3)cc2)cc1OC [Compound 42]
15,100 to 250 nM,COc1cc(NC(=O)c2cc(=O)c3ccccc3o2)c(C(=O)Nc2ccc(CCN(Cc3cccnc3)Cc3ccc4c(c3)n(C)c(=O)n4C)cc2)cc1OC [Compound 44]
16,250 to 500 nM,COc1cc(NC(=O)c2cc(=O)c3ccccc3o2)c(C(=O)Nc2ccc(CCN(Cc3ccc4c(cnn4C)c3)Cc3ccncc3F)cc2)cc1OC [Compound 47]
17,100 to 250 nM,COc1cncc(CN(CCc2ccc(NC(=O)c3cc(OC)c(OC)cc3NC(=O)c3cc(=O)c4ccccc4o3)cc2)Cc2ccc3c(cnn3C)c2)c1 [Compound 48]
18,250 to 500 nM,COc1cnccc1CN(CCc1ccc(NC(=O)c2cc(OC)c(OC)cc2NC(=O)c2cc(=O)c3ccccc3o2)cc1)Cc1ccc2c(cnn2C)c1 [Compound 49]
19,100 to 250 nM,COc1cc(NC(=O)c2cc(=O)c3ccccc3o2)c(C(=O)Nc2ccc(CCN(Cc3cccc(-n4ccnc4)c3)Cc3ccc4c(c3)nnn4C)cc2)cc1OC [Compound 50]
